Laboratory results as given in patent publication US8946231B2, “P2X3, receptor antagonists for treatment of pain” (Merck Sharp & Dohme Corp., priority 2009, dated 2015).

target: T1, human P2X3 (Homo sapiens, UniProt P56373); assay: Intracellular Calcium Measurement to Assess Antagonist Affinity (FLIPR, Fluo-4); type: cell-based; details: cells expressing human P2X3; agonist α,β-meATP at EC50; antagonist added 10 min before agonist
T1 construct: expressed in transfected cells
T1 sequence (P56373 1-397): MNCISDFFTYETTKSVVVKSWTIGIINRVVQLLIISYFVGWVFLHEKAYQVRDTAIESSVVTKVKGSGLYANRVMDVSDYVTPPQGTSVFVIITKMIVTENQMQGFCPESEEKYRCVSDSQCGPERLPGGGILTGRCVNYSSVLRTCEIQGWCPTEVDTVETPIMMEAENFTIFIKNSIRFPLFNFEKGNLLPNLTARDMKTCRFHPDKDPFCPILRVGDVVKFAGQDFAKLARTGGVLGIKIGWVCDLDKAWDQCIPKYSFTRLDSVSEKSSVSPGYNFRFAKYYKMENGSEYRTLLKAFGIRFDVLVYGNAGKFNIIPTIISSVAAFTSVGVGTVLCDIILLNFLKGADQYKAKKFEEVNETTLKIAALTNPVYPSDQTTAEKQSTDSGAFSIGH
Description: Generation of a Human P2X3 and P2X2/3 Stable Cell Line—Human P2X3 receptor cDNA (Accession number NM_002559) was subcloned as a 5′XhoI and 3′HindIII fragment into the expression vector pcDNA5/FRT (Invitrogen). Human P2X2 receptor cDNA (Accession number NM_174873) was subcloned as a 5′EcoRI and 3′NotI fragment into the expression vector pIRESneo2 (BD Biosciences Clontech). The human P2X3 expression construct was transfected using Lipofectamine 2000 (Invitrogen) into Ftp-in—293 cells (Invitrogen) according to the manufacturer's directions. Cells positive for flp-mediated recombination of […] P2X3 were selected using 150 μg/ml hygromycin. The stable human P2X3 cell line was co-transfected with the human P2X2 expression construct using Lipofectamine 2000 as above and co-transfected cells selected using […] hygromycin and 1 mg/ml G418. The stable P2X3 cell line was propagated in DMEM, 10% FBS, 100 μg/ml hygromycin, and 100 units/ml penicillin and 100 μg/ml streptomycin, and maintained at 37° and 95% humidity. The stable P2X213 cell line was propagated as above with the addition of 500 μg/ml G418.
Intracellular Calcium Measurement to Assess Antagonist Affinity—A fluorescent imaging plate reader (FLIPR; Molecular Devices) was used to monitor intracellular calcium levels using the calcium-chelating dye Fluo-4 (Molecular Probes). The excitation and emission wavelengths used to monitor fluorescence were 488 nm and 530 nm, respectively. Cells expressing either human P2X3 or human P2X2/3 were plated at a density of 20,000 cells/well (20 μl/well) in 384-well black-walled plates approximately 20 hours before beginning the assay. […] During this period fluorescence data is collected at 3 sec intervals followed by 10 sec intervals. […] Following agonist addition fluorescence was measured at 5 sec intervals and analyzed based on the increase in peak relative fluorescence units (RFU) compared to the basal fluorescence. Peak fluorescence was used to determine the inhibitory effect at each concentration of antagonist by the following equation: % Inhibition=100*(1−((RFU(drug)−RFU(control)/(RFU(DMSO only)−RFU(control)))) In vitro Electrophysiological Assay—Cells expressing human P2X3 receptors were grown to a confluence of 65-85% 20 to 32 hours prior to assay. The cells were dissociated with trypsin, centrifuged, and resuspended in bath solution at a cell density of 1×10^6 cells/ml and loaded onto PatchXpress. The bath solution contained 150 mM NaCl, 4 mM KCl, 2 mM CaCl2, 1.2 mM MgCl2, 10 mM HEPES, and 11.1 mM glucose, at pH 7.2. […]

Point of comparison: CC(C)Cc1nn(-c2ccc(F)cn2)cc1C(=O)N[C@H](C)c1ccc(C(F)(F)F)[n+]([O-])c1 [Example 1.109], IC50 34 nM. Against it:
- C[C@@H](NC(=O)c1cn(-c2ccc(F)cn2)nc1-c1ccccc1)c1ccc(C(F)(F)F)[n+]([O-])c1 [Example 1.74, 1-(5-Fluoropyridin-2-yl)-N-{(1R)-1-[1-oxido-6-(trifluoromethyl)pyridin-3-yl]ethyl}-3-phenyl-1H-pyrazole-4-carboxamide] — 1.6-fold higher, 53 nM
- C[C@@H](NC(=O)c1cn(-c2ccc(F)cn2)nc1-c1cnoc1)c1ccc(C(F)(F)F)[n+]([O-])c1 [Example 1.103] — 3.7-fold higher, 125 nM
- Cc1ccc(-c2nc(-c3ccccc3)c(C(=O)N[C@H](C)c3ccc(C(F)(F)F)[n+]([O-])c3)o2)nc1 [Example 2.5] — 2.5-fold higher, 84 nM
